According to patent publication US20250282733A1, “NOVEL 1,2,3,4,4A,5,6,7,8,9,10,10A-DODECAHYDROBENZO[G]QUINOLIN-6-OL COMPOUNDS AND USES THEREOF” (priority 2022, published 2025):

Experiments:
Assay type in all cases: in vivo, rat
[1] = tested on: unilaterally 6-OHDA lesioned rats; experiment: Contralateral rotations in unilaterally 6-OHDA lesioned rats; details: for contralateral turns: dopamine-receptor agonist potency / duration of action as compared to that of apomorphine / bioavailability indicated by contralateral turns after IP and PO administration: 0.1 mg/kg, FIG. 4; for contralateral turns: dopamine-receptor agonist potency: IP (n=4) and PO (n=6); for duration of action as compared to that of apomorphine: IP and PO; for bioavailability indicated by contralateral turns after IP and PO administration: IP vs PO
Protocol: Male Sprague-Dawley rats (150 g; Scanbur, Sweden) were used for this study and housed in separate air-conditioned rooms (12-h dark/light cycle) at 20° C. and a humidity of 53%. Experiments were performed in agreement with the European Communities Council Directive of 24 Nov. 1986 (86/609/EEC) on the ethical use of animals and were approved by the local ethical committee at Karolinska Institute. In most of the experiments, unilaterally 6-OHDA lesioned rats were used to mimic aspects of Parkinsonism. Unilateral 6-OHDA lesioning of nigral dopaminergic axons was performed as previously described (Zhang et al., Neuropharmacology 54 (2008) 1143-1152). Briefly, rats were anesthetized with ketamine (100 mg/kg, i.p.; Parke-Davis, Boxmeer, Netherlands)/xylazine (5 mg/kg, i.p.; Bayer, Kiel, Germany), pretreated with desipramine (25 mg/kg, i.p.; Sigma, Stockholm, Sweden) and pargyline (5 mg/kg, i.p.; Sigma), placed in a stereotaxic instrument and injected with 6-OHDA (2.5 p.I of a 5 mg/ml solution; Sigma) into the medial forebrain bundle of the right hemisphere (AP—2.8 mm, ML—2.0 mm and V—9.0 mm). Two weeks after unilateral 6-OHDA lesioning, rats were administered with apomorphine (1 mg/kg, i.p; Sigma), and their contralateral rotations were measured. […] Only rats which rotated contralaterally more than 100 times were included in further experiments.
The time scale is minutes or hours after administration. […] Negative control animals were injected with saline.

[2] = tested on: non-pre-treated Sprague-Dawley rats; experiment: Spontaneous locomotor activity (distance travelled); details: 0.3 μmol/kg SC; for effect on motor activity (distance travelled): n=5, 0-180 min, vs saline, FIG. 6 and 7
Protocol: Behavioral activity was measured using eight Digiscan activity monitors (RXYZM (16) TAO, Omnitech Electronics, Columbus, OH, USA), connected to an Omnitech Digiscan analyzer and an Apple Macintosh computer equipped with a digital interface board (NB DIO-24, National Instruments, USA). Each activity monitor consisted of a quadratic metal frame (W×L=40 cm×40 cm) equipped with photo beam sensors. During measurements of behavioral activity, a rat was put in a transparent acrylic cage (W×L×H, 40×40×30 cm) which in turn was placed in the activity monitor. Each activity monitor was equipped with three rows of infrared photo beam sensors, each row consisting of 16 sensors. Two rows were placed along the front and the side of the floor of the cage, at a 90° angle, and the third row was placed 10 cm above the floor to measure vertical activity. Photo beam sensors were spaced 2.5 cm apart. Each activity monitor was fitted in an identical sound and light attenuating box containing a weak house light and a fan.
The computer software was written using object-oriented programming (LabVIEW™ National instruments, Austin, TX, USA).
Behavioral data from each activity monitor, representing the position (horizontal center of gravity and vertical activity) of the animal at each time, were recorded at a sampling frequency of 25 Hz and collected using a custom written LABView™ application. The data from each recording session were stored and analyzed with respect to distance traveled. Each behavioral recording session lasted 180 min, starting approximately 5 min after the injection of test compound.
Compounds disclosed herein have been tested for effects on spontaneous locomotor activity in non-pre-treated Sprague-Dawley rats (based on accumulated distance travelled 0-180 min post dosing), and with the single dose of 0.3 μmol/kg (n=5, SC) compared to a control group of animals (n=5) that obtained saline (SC). The unit of the distance travelled is an arbitrary unit.
The animals were placed in the motility meters immediately after administration and locomotor activity was recorded for 180 minutes.
Results are presented as distance travelled for the control group (empty bar) and for the group of animals that obtained the drug (filled bar).
The animals were placed in the motility meters immediately after administration and locomotor activity was recorded for 180 minutes. Results are presented as distance travelled for the control group (empty bars) and for the group of animals that obtained the drug (filled bar).

Npas4 = experiment: m-RNA analysis of Npas4 in brain regions (Taqman PCR); details: SC
Protocol: (§1) Animals were killed 60 min after the injection of the drugs by decapitation.
(§2) The brains were dissected into a left and a right part. The left part was analyzed for gene expression and dissected into 4 different areas:
(§3) Limbic system (containing nucleus accumbens, most parts of the olfactory tubercle, ventral pallidum and amygdala), striatum, frontal cortex, and hippocampus.
(§4) Total RNA was prepared by RNeasy Plus Universal Tissue Mini Kit (Qiagen).
(§5) RNA pellets were dissolved in RNAse-free water and stored at −80° C. The sample concentration was determined spectrophotometrically by a NanoDrop ND-1000.
(§6) A two-step reversed transcription was performed by using a SuperScript III kit (Invitrogen). 1 μg of total RNA was reversed transcribed with 5 μl 2×RT Reaction Mix, 1 μl RT Enzyme and the mix volume was adjusted to 10 μl with RNAse-free water. The sample was incubated at 25° C. for 10 min, 50° C. for 30 min and finally 85° C. for 5 min. […]
(§7) EGR-1 (Early growth response qRnoCEP0022872) was analyzed in duplex with the reference gene HPRT (hypoxanthine phosphoribosyltransferase qRnoCEP0050840). Npas4 (neuronal PAS domain protein4 qRnoCEP0029461) was analyzed in singleplex. The reference gene Ppia (cyclophilin A peptidyl-propyl cis-trans isomerase qRnoCIP0050815) was also analyzed in order to quantify gene expression for genes of interest.

Arc mRNA = experiment: m-RNA analysis of Arc in brain regions (real-time PCR); details: 0.3 and 1 μmol/kg SC, 60 min after injection, percent of control, FIG. 5
Protocol: as §1, §2, §3, §4, §5
A two-step reversed transcription was performed by using a SuperScript III kit (Invitrogen). 1 μg of total RNA was reversed transcribed with 5 μl 2×RT Reaction Mix, 1 μl RT Enzyme and the mix volume was adjusted to 10 μl with RNAse-free water. The sample was incubated at 25° C. for 10 min, 50° C. for 30 min and finally 85° C. for 5 min. 1 U of E. coli RNase H was added following incubation at 37° C. for 20 min and 85° C. for 5 minutes. The cDNA solution was diluted 40 times in Tris EDTA buffer solution pH8 (Merck) and stored at −20° C.
Three sequences (arc and two reference genes) were amplified together in a triplex PCR-reaction. For real-time PCR measurements: 5 μl of the cDNA reaction was amplified in a 20 μl reaction mixture containing 10 μl PerfeCTa MultiPlex qPCR SuperMix (Quantabio), 3.5 μl RNAse-free water, 0.15 µM of each primer and 0.1 μM of each probe. Real-time PCR was measured on CFX96 (Bio-Rad) using the following settings for all genes: 3 min pre-incubation at 95° C. followed by 40 cycles of denaturation at 95° C. for 15 s, annealing and elongation at 60° C. for 1 min. Reference genes are HPRT and cyclophilin.
FIG. 5 illustrates the effects on tissue levels of Arc mRNA in four different regions of the brain (limbic regions, striatum, frontal cortex and hippocampus) after subcutaneous administration of two different compounds at two different doses as in comparison to that of corresponding control experiments. The bars in the left half of the figure represent the effects on ARC by the prior art compound according to Preparation 4A ((4aR,10aR)-1-propyl-1,2,3,4,4a,5,8,9,10,10a-decahydrobenzo[g]quinolin-6 (7H)-one) and the bars in the right half of the figure represent the effects on ARC by the compound of the present disclosure according to Example 4B ((4aR,10aR)-1-propyl-1,2,3,4,4a,5,6,7,8,9,10,10a-dodecahydrobenzo[g]quinolin-6-ol). The effects on tissue levels of Arc by both of the two aforementioned compounds were measured at two different doses (0.3 μmol/kg and 1 μmol/kg) and the effect is presented as percent of control means±SEM. Statistical significance was assessed using Student's t-test (2 tailed) vs controls.

egr-1 = experiment: m-RNA analysis of egr-1 in brain regions (Taqman PCR); details: SC
Protocol: as §1, §2, §3, §4, §5, §6, §7

Compound | contralateral turns: dopamine-receptor agonist potency [1] | duration of action as compared to that of apomorphine [1] | bioavailability indicated by contralateral turns after IP and PO administration [1] | on-set of action (distance travelled increases after the initial decrease) [2] [min] | side effect profile, inferred from slower on-set of action [2] | effect on motor activity (distance travelled) [2] | tissue levels of Npas4 in the limbic regions (Npas4; 60 min after injection) | increase of Npas4 in the limbic regions compared to Preparation 4A (Npas4; vs prior art compound) | tissue levels of Arc in the frontal cortex (Arc mRNA) | tissue levels of Arc in the limbic regions (Arc mRNA) | tissue levels of egr-1 in the limbic regions (egr-1; 60 min after injection) | increase of egr-1 in the limbic regions compared to Preparation 4A (egr-1; vs prior art compound) | contralateral turns as a function of time (course of effect) ([1]; 1 mg/kg i.p., FIG. 3) | time at which a long distance travelled is already reached (steep immediate effect) [2] [min] | peak plasma concentration of the active species, inferred from locomotor data ([2]; compared to Example 4B)
CCCN1CCC[C@@H]2CC3=C(CCC[C@@H]3O)C[C@H]21 [epimer 2, (4aR,6S,10aR)-1-propyl-1,2,3,4,4a,5,6,7,8,9,10,10a-dodecahydrobenzo[g]quinolin-6-ol] | highly potent dopamine-receptor agonists | very long duration of action | good bioavailability |  |  |  |  |  |  |  |  |  |  |  | 
CCCN1CCC[C@@H]2CC3=C(CCC[C@H]3O)C[C@H]21 [Example 4B, (4aR,6R,10aR)-1-propyl-1,2,3,4,4a,5,6,7,8,9,10,10a-dodecahydrobenzo[g]quinolin-6-ol] | highly potent dopamine-receptor agonists | very long duration of action | good bioavailability | 35 to 40 | no or a mild side effect profile | induce hyperactivity | increases tissue levels | to a greater extent | dose-dependently increase | dose-dependently increases | increases tissue levels | to a greater extent |  |  | 
CN1CCc2cccc3c2[C@H]1Cc1ccc(O)c(O)c1-3 [apomorphine, reference compound] |  |  |  |  |  |  |  |  |  |  |  |  | declines over time |  | 
CCCN1CCC[C@@H]2CC3=C(CCCC3=O)C[C@H]21 [Preparation 4A, (4aR,10aR)-1-propyl-1,2,3,4,4a,5,8,9,10,10a-decahydrobenzo[g]quinolin-6 (7H)-one] |  |  |  | 20 to 25 |  | induce hyperactivity |  |  | dose-dependently increase | does not have |  |  |  | 20 to 45 | higher peak plasma concentration
